Bridge positions count the residues as written; N and C are the ends. Square brackets hold non-standard residues; d marks the D form. Peptide text beside a SMILES is read from it. R8 = C=CCCCCCC[C@@](C)(N)C(=O)O; S5 = C=CCCC[C@](C)(N)C(=O)O
What was measured:
[1] = tested on: recombinant GFP-expressing RSV (strain A2) in A549 cells; assay type: cell-based, human respiratory syncytial virus; conditions: A549 cells, eGFP RSV, GFP-positive cells by FACS 24 h p.i.
Method: A549 cells were infected with a recombinant green fluorescent protein (GFP)-expressing RSV (strain A2) ([23]), and the inhibitory activity of the peptide was quantified by flow cytometry.
Each peptide was diluted 3 times by 2-fold serial dilutions. eGFP RSV virus at an MOI of 0.5 was used for the infection, and GFP-positive cells were counted by FACS analysis 24 h p.i. The GFP data were normalized to the fluorescence values observed with virus only and plotted as percent inhibition.
Serial 4-fold dilutions of inhibitors were mixed with eGFP-encoding RSV virus ([23]) with a volume of virus required to achieve approximately 50% of infection in medium containing 2% fetal calf serum. The resulting mixture was added to 24-well plates containing A549 cells. Cells were incubated for 2 h at 37°C, the medium was replaced, and cells were incubated for an additional 24 h. Cells were treated with 300 μl of trypsin for 10 min at 37°C, and the detached cells were diluted in 1 ml of culture medium. Following centrifugation at 1,700 rpm, the pellet was resuspended in 300 μl of PBS–1% fetal bovine serum (FBS) (vol/vol) and GFP-positive cells were counted by fluorescence-activated cell sorter (FACS) analysis. The GFP data were normalized to the fluorescence value observed with virus only. The resulting inhibition curves were fitted in Igor Pro as described above.

[2] = circular dichroism; conditions: 10 mM phosphate; pH 7.5; 25 °C; 50 uM
[3] = molecular target: 5HB, a recombinant protein containing 3 HR1 domains covalently attached to 2 HR2 domains; conditions: for competition with binding of fluorescently labeled T108 to recombinant 5HB (in words): Ala-scan variants, FP
Source text: The RSV HR2 region (residues 476 to 524) is a 49-amino-acid sequence that has been extensively characterized (Fig. 1). HR2 is a largely unstructured peptide in aqueous solution folding into an α-helix upon binding to trimeric HR1 coiled coils ([20]). […] We reduced HR2 (aa 483 to 516) into three short overlapping subdomains (subdomains 1 to 3) (Fig. 1). These peptides were scanned for various stapling combinations. […] Far-UV circular dichroism (CD) spectropolarimetry was used to investigate the effect of stapling on the α-helical content of the peptides. […] To assess the propensity of the stapled peptides to hinder the formation of the postfusion six-helix bundle required for viral cell entry, we used a 5-helix bundle (5HB) biochemical fluorescence polarization (FP) competition assay as previously described ([21], [22]).
The coding sequence of 5HB was designed as described previously and de novo synthesized by Genscript ([21]). The HR1 (aa 126 to 182) and HR2 (aa 476 to 524) coding sequences from wild-type RSV A2 strain F ([36]) were codon optimized for overexpression in Escherichia coli and cloned at NdeI/BamHI restriction sites of pET-15b to generate the expression plasmid for 5HB. The 5HB expression construct was transformed into Escherichia coli BL21(DE3). Cells were grown at 37°C to an optical density at 600 nm of 0.8 followed by induction with isopropyl-1-thio-β-D-galactopyranoside at a final concentration of 0.5 mM for 12 to 15 h. Cells were harvested by centrifugation, washed twice with PBS, and resuspended in 20 ml of PBS (pH 7.4), 500 mM NaCl, and 1% Triton X-100 supplemented with complete protease inhibitor. Cell suspensions were disrupted by sonication. Cell debris was removed through ultracentrifugation at 18,000 × g for 1 h at 4°C, and clarified cell lysate was mixed with 1 ml of nickel-nitrilotriacetic acid (Ni-NTA) agarose beads (Qiagen) preequilibrated with 20 ml of lysis buffer. The suspension was agitated for 1 h at 4°C and loaded onto a 5-ml polypropylene column (Qiagen). The column was washed twice with 8 ml of PBS (pH 7.4), 500 mM NaCl, 1% Triton X-100, and 100 mM imidazole. Proteins were eluted with 5 × 500 μl of a buffer containing PBS (pH 7.4), 300 mM imidazole, and 500 mM NaCl. The imidazole was removed by dialysis, and protein purity was assessed by SDS-polyacrylamide gel electrophoresis followed by Coomassie blue staining. Protein concentration was determined with the Qubit 2.0 Fluorometer (Life Technologies).
The T108 ([12]) peptide probe was synthesized by standard SPPS procedures using HCTU as a coupling reagent as described above. A 10-μl volume of recombinant 5HB protein in FP buffer (20 mM PBS [pH 7.4], 500 mM NaCl, 0.01% [vol/vol] Tween 20, and 0.05 mg/ml bovine gamma globulin) was preincubated for 10 min at room temperature with 10 μl of the appropriate concentration of the inhibitor, after which 10 μl of fluorescein isothiocyanate (FITC)-T106 was added and further incubated for 30 min at room temperature. The final concentrations of protein and probe were 50 nM and 2 nM, respectively. The fluorescence polarization assay was performed in 384-well plates using a Spectramax Paradigm (Molecular Devices), using excitation and emission wavelengths of 485 nm and 535 nm, respectively. The acquisition time was 700 ms, and the read height was 1 mm. All experiments were performed in duplicate. […] In order to ensure robust fitting for some fits, r0 was kept constant at the value measured for the free tracer in buffer.

[4] = tested on: rHRSV-mCherry in HEp-2 cells; test: rHRSV-mCherry inhibition assay; assay type: cell-based, human respiratory syncytial virus; conditions: Table 3 (Ala scan); HEp-2 cells, rHRSV-mCherry MOI 0.2, 2-fold serial dilutions (11 dilutions), duplicate; ± SD of fit
Method: To measure the inhibitory activity of the peptide, the mCherry red fluorescence was quantified 48 h postinfection (p.i.).
Viral replication was quantified by measuring the mCherry fluorescence at 48 h p.i. and normalized based on the fluorescence of infected and untreated cells. (B) Cytotoxicity assay. HEp-2 cells were incubated in the presence of serial dilutions of peptides, and cell survival was quantified using the CellTiter-Glo Luminescent cell viability assay 24 h after the addition of the peptides. The signal was normalized based on the luminescence obtained for untreated cells. Error bars are standard deviations from duplicates.
HEp-2 cells were seeded at 5 × 10^4 cells per well in a 96-well plate the day before the infection. Peptides were 2-fold serially diluted in dimethyl sulfoxide (DMSO) (11 dilutions) and then further diluted in EMEM without phenol red and preincubated for 15 to 20 min with rHRSV-mCherry ([24]) at a final dilution with an MOI of 0.2 ([24]). The cells were incubated with the virus-peptide mixtures for a period of 1.5 to 2 h. The medium was then replaced by EMEM without phenol red containing 2% fetal bovine serum and the same concentration of peptide as the one that was used during the infection step. Plates were incubated 48 h at 37°C, and the mCherry fluorescence was measured using a spectrofluorometer (Tecan infinite M200PRO) with excitation and emission wavelengths of 580 and 620 nm, respectively. Relative fluorescence was normalized by the fluorescence of nontreated infected cells. Noninfected HEp-2 cells were used as standards for fluorescence background levels. Each experiment was performed in duplicate and repeated at least twice. The resulting inhibition curves were fitted in Igor Pro as described above.

Row | Compound | inhibition of RSV-eGFP infection (in words) [1] | helicity [2] [%] | Kd ([3]; competition with fluorescently labeled T108 probe (2 nM), 5HB 50 nM, 10 min preincubation + 30 min room temperature, duplicates) [µM] | EC50 [4] [µM] | competition with binding of fluorescently labeled T108 to recombinant 5HB (in words) [3]
1 | CC[C@H](C)[C@H](NC(=O)[C@H](CCCCN)NC(=O)[C@H](CCC(=O)O)NC(=O)[C@H](CC(N)=O)NC(=O)[C@@H](NC(=O)[C@H](CCC(N)=O)NC(=O)[C@]1(C)CCCC=CCCCCCC[C@@](C)(NC(=O)[C@H](CO)NC(=O)[C@@H]2CCCN2C(=O)[C@H](Cc2ccccc2)NC(=O)[C@H](CCC(=O)O)NC(C)=O)C(=O)N[C@@H](CCC(=O)O)C(=O)N[C@@H](Cc2ccccc2)C(=O)N[C@@H](CC(=O)O)C(=O)N[C@@H](C)C(=O)N[C@@H](CO)C(=O)N[C@@H]([C@@H](C)CC)C(=O)N1)C(C)C)C(=O)N[C@@H](CC(N)=O)C(N)=O [Peptide 1a] (Ac-EFPS[R8]EFDASI[S5]QVNEKIN-NH2; staple 5-12) | none | 14.2 | 9.8 ± 1.5 |  | 
2 | CC[C@H](C)[C@H](NC(=O)[C@H](CCCCN)NC(=O)[C@H](CCC(=O)O)NC(C)=O)C(=O)N[C@@]1(C)CCCC=CCCC[C@@](C)(C(=O)N[C@@H](Cc2ccccc2)C(=O)N[C@@H](C)C(=O)N[C@@]2(C)CCCC=CCCC[C@@](C)(C(=O)N[C@@H](CC(C)C)C(=O)N[C@@H](CC(C)C)C(=O)N[C@@H](Cc3c[nH]cn3)C(=O)N[C@@H](CC(N)=O)C(=O)N[C@H](C(N)=O)C(C)C)NC(=O)[C@H](CC(=O)O)NC(=O)[C@H](CO)NC(=O)[C@H](CCCCN)NC2=O)NC(=O)[C@H](CC(C)C)NC(=O)[C@H](CO)NC(=O)[C@H](CCC(N)=O)NC1=O [Peptide I506A] (Ac-EKI[S5]QSL[S5]FA[S5]KSD[S5]LLHNV-NH2; staple 4-8, 11-15) |  | 22 |  | 10.4 ± 2.97 | none of these variants were able to compete
3 | CC[C@H](C)[C@H](NC(=O)[C@H](Cc1ccccc1)NC(=O)[C@]1(C)CCCC=CCCC[C@](C)(NC(=O)[C@@H](NC(=O)[C@H](CCCCN)NC(=O)[C@H](CCC(=O)O)NC(C)=O)[C@@H](C)CC)C(=O)N[C@@H](CCC(N)=O)C(=O)N[C@@H](CO)C(=O)N[C@@H](CC(C)C)C(=O)N1)C(=O)N[C@@]1(C)CCCC=CCCC[C@@](C)(C(=O)N[C@@H](CC(C)C)C(=O)N[C@@H](CC(C)C)C(=O)N[C@@H](Cc2c[nH]cn2)C(=O)N[C@@H](CC(N)=O)C(=O)N[C@H](C(N)=O)C(C)C)NC(=O)[C@H](CC(=O)O)NC(=O)[C@H](CO)NC(=O)[C@H](C)NC1=O [Peptide K508A] (Ac-EKI[S5]QSL[S5]FI[S5]ASD[S5]LLHNV-NH2; staple 4-8, 11-15) |  | 76 |  | 10.9 ± 13.9 | none of these variants were able to compete
4 | CC[C@H](C)[C@@H]1NC(=O)[C@H](Cc2ccccc2)NC(=O)[C@@](C)(NC(=O)[C@H](CC(C)C)NC(=O)[C@H](CO)NC(=O)[C@H](CCC(N)=O)NC(=O)[C@H](CC(N)=O)NC(=O)[C@@H](NC(=O)[C@H](CCCCN)NC(=O)[C@H](CCC(=O)O)NC(C)=O)[C@@H](C)CC)CCCC=CCCC[C@@](C)(C(=O)N[C@@H](CO)C(=O)N[C@@H](CC(=O)O)C(=O)N[C@@]2(C)CCCC=CCCC[C@@](C)(C(=O)N[C@H](C(N)=O)C(C)C)NC(=O)[C@H](Cc3c[nH]cn3)NC(=O)[C@H](CC(C)C)NC(=O)[C@H](CC(C)C)NC2=O)NC(=O)[C@H](C)NC1=O [Peptide R507A] (Ac-EKINQSL[S5]FIA[S5]SD[S5]LLH[S5]V-NH2; staple 8-12, 15-19) |  | 45 |  | 175 | none of these variants were able to compete
5 | CC[C@H](C)[C@H](NC(=O)[C@H](Cc1ccccc1)NC(=O)[C@]1(C)CCCC=CCCC[C@](C)(NC(=O)[C@@H](NC(=O)[C@H](CCCCN)NC(=O)[C@H](CCC(=O)O)NC(C)=O)[C@@H](C)CC)C(=O)N[C@@H](CCC(N)=O)C(=O)N[C@@H](CO)C(=O)N[C@@H](CC(C)C)C(=O)N1)C(=O)N[C@@]1(C)CCCC=CCCC[C@@](C)(C(=O)N[C@@H](CC(C)C)C(=O)N[C@@H](CC(C)C)C(=O)N[C@@H](Cc2c[nH]cn2)C(=O)N[C@@H](CC(N)=O)C(=O)N[C@H](C(N)=O)C(C)C)NC(=O)[C@H](CC(=O)O)NC(=O)[C@H](C)NC(=O)[C@H](CCCCN)NC1=O [Peptide S509A] (Ac-EKI[S5]QSL[S5]FI[S5]KAD[S5]LLHNV-NH2; staple 4-8, 11-15) |  | 62 |  | 82 ± 1.56 | none of these variants were able to compete
6 | CC[C@H](C)[C@@H]1NC(=O)[C@H](CO)NC(=O)[C@](C)(NC(=O)[C@H](CC(=O)O)NC(=O)[C@H](Cc2ccccc2)NC(C)=O)CCCCCCC=CCCC[C@@](C)(C(=O)N[C@@H](CCCCN)C(=O)N[C@H](C(=O)N[C@@H](CC(N)=O)C(=O)N[C@@H](CCC(N)=O)C(=O)N[C@@H](CO)C(=O)N[C@@H](CC(C)C)C(=O)N[C@@H](C)C(=O)N[C@@H](Cc2ccccc2)C(=O)N[C@H](C(=O)N[C@]2(C)CCCCCCC=CCCC[C@@](C)(C(=O)N[C@@H](CC(N)=O)C(=O)N[C@H](C(=O)N[C@@H](CC(N)=O)C(=O)N[C@@H](C)C(=O)NCC(=O)N[C@@H](CCCCN)C(=O)N[C@@H](CO)C(=O)N[C@H](C(N)=O)[C@@H](C)O)C(C)C)NC(=O)[C@H](CC(C)C)NC(=O)[C@H](CC(C)C)NC(=O)[C@H](CCC(=O)O)NC(=O)[C@H](CC(=O)O)NC(=O)[C@H](CO)NC(=O)[C@H](CCCCN)NC2=O)[C@@H](C)CC)[C@@H](C)CC)NC(=O)[C@H](CC(N)=O)NC(=O)[C@H](C(C)C)NC(=O)[C@H](CCC(N)=O)NC(=O)[C@H](CO)NC1=O [RSV-SAHBD (Z), reference compound] | potency similar to that of peptides 4bb and 4ca |  |  |  | 
